Reference: PMC7557804, “The Anti-Microbial Peptide (Lin-SB056-1)2-K Reduces Pro-Inflammatory Cytokine Release through Interaction with Pseudomonas aeruginosa Lipopolysaccharide” (Antibiotics, 2020)
Entries after “also recorded” stand apart in the source; their conditions may differ.

Experiments:
A549 cells [1] = assay: LPS-induced cytokine production by A549 cells (bead-based multiplex immunoassay); type: cell-based, Human; conditions: LPS 800 ng/mL, 4 h, 37 °C, peptide 4.8 to 19.25 μM
Description: (§1) Human non-small-cell lung adenocarcinoma A549 cells (ATCC CCL-185; LGC Standards, Milan, Italy) and human monocytic THP-1 cells (ATCC TIB-202; LGC Standards) were cultured in tissue culture flasks in Dulbecco’s modified essential medium (DMEM) (Euroclone, Milan, Italy) and RPMI 1640 medium (Euroclone), respectively. Both media were supplemented with 2 mM L-glutamine (Euroclone) and 10% heat-inactivated fetal bovine serum (FBS; Euroclone). Confluent monolayers were detached from the culture flask with 0.25% trypsin/1 mM EDTA solution (Euroclone), suspended in complete culture medium and seeded into flat-bottom 96-well plates at a final density of 1 × 10^4 cells/well (A549) and 2 × 10^4 cells/well (THP-1). A549 cells were cultured for 24 h at 37 °C, 5% CO2 in order to allow adhesion and formation of semi-confluent monolayers. THP-1 cells were cultured for 3 days (37 °C, 5% CO2) in the presence of 100 nM TPA (Sigma-Aldrich, St. Louis, MO, USA) to induce their differentiation into macrophage-like cells.
The anti-inflammatory potential of lin-SB056-1 and (lin-SB056-1)2-K was assessed by evaluating their ability to reduce LPS-induced production of pro-inflammatory cytokines by A549 cells and THP-1 macrophages. In order to ensure cytokine production, cell monolayers were stimulated with LPS from P. aeruginosa serotype 10 (purified by phenol extraction; Sigma-Aldrich, Milano, Italy) at a final concentration of 10 ng/mL (THP-1) and 800 ng/mL (A549). LPS concentrations used in the experiments were chosen based on preliminary assays aimed at identifying the minimum dose of the molecule able to stimulate cytokine production after 4 h of exposure. In order to assess the inhibitory activity of peptides on cytokine production, cell monolayers were incubated in complete culture medium in the presence of LPS and different concentrations of lin-SB056-1 and (lin-SB056-1)2-K (4.8 to 19.25 μM) for 4 h (37 °C, 5% CO2). Cells incubated in the presence of LPS alone were used as positive (cytokine production) control. Following incubation, cell culture supernatants were collected, filter sterilized (0.22 µm) and employed for the quantification of cytokines and the assessment of cell viability.
Different pro-inflammatory cytokines (i.e., IL-1β, IL-6, IL-8 and TNF-α) were quantified in cell culture supernatants through a bead-based multiplex immunoassay (LEGENDplex multi-analyte flow assay kit; BioLegend, San Diego, CA, USA) following manufacturer’s instructions. Briefly, 25 μL of cytokine standard or cell supernatant were incubated with 25 μL of anti-cytokine conjugated beads into V-bottom 96-well plates for 2 h. Following incubation, the plates were washed and subsequently incubated with the detection antibody (25 μL/well) for 1 h. A volume of 25 μL of streptavidin-phycoerythrin was added to each well, and the plates were incubated for another 30 min in the dark. Following consecutive washing steps, the beads were resuspended in the LEGENDplex wash buffer and the samples were analyzed by flow cytometry (BD Accuri C6 flow cytometer; BD Biosciences, Mountain View, CA, United States). Data were acquired with the BD Accuri C6 software (BD Biosciences) (300 events per analyte) and analyzed with the LEGENDplex software (BioLegend). Minimum detectable concentration (MDC+2STDEV) for the tested cytokines were as follows: IL-1β, 0.65 + 0.47 pg/mL; IL-6, 0.97 + 1.46 pg/mL; IL-8, 1.90 + 0.65 pg/mL; TNF-α, 0.88 + 0.27 pg/mL.

A549 cells [2] = assay: Cytotoxicity (LDH release) towards A549 cells; type: cell-based, Human; conditions: LPS-stimulated A549, 4 h
Description: as §1
(§2) The cytotoxicity of lin-SB056-1 and (lin-SB056-1)2-K towards A549 and THP-1 cells was evaluated to exclude a possible correlation between reduction in cytokine levels and decrease in cell numbers. To this end, culture supernatants of cells stimulated with LPS in the presence of the peptides were employed to quantify the amount of cytoplasmic LDH released by dead cells. Cells incubated in culture medium alone or in the presence of LPS served as an indication of spontaneous cell death (cell viability controls), while cells treated with a commercial lysis buffer (Pierce LDH cytotoxicity assay kit, Thermo Fisher Scientific) were used as cell death control (100% cell lysis). The enzymatic activity of LDH in cell supernatants was measured using the Pierce LDH cytotoxicity assay kit (Thermo Fisher Scientific) following manufacturer’s instructions. The cytotoxic effect was determined as follows: cytotoxicity (%) = [(LDH activity of A/LDH activity of B) × 100], where A represents peptide-treated or untreated cells (both in the presence and absence of LPS), and B corresponds to the cell lysis control.

THP-1 macrophages = assay: Cytotoxicity (LDH release) towards THP-1 macrophages; type: cell-based, Human; conditions: LPS-stimulated THP-1 macrophages, 4 h
Description: as §1, §2

[3] = BODIPY TR cadaverine (BC) fluorescent displacement assay, LPS binding; design: species or system P. aeruginosa; conditions: P. aeruginosa serotype 10 LPS 10 µg/mL, BC 10 µM; 50 mM Tris-HCl, pH 7.4; 25 °C; excitation 580 nm, emission 620 nm; mean of three independent experiments, SD not exceeding 5%
Description: Measurement of the ability of lin-SB056-1 and its dendrimeric derivative to bind P. aeruginosa serotype 10 LPS (Sigma-Aldrich) in vitro was performed by a fluorescent displacement assay using the BODIPY TR cadaverine (BC) probe (5-(((4-(4,4-difluoro-5-(2-thienyl)-4-bora-3a,4a-diaza-s-indacene-3-yl)phenoxy)acetyl)amino)pentylamine, hydrochloride); Thermo Fisher Scientific), as described elsewhere. BC binds to LPS by recognizing the lipid A portion and the probe fluorescence is quenched. When a peptide able to interact with LPS is added, BC is displaced from the complex and its fluorescence increases. LPS binding assays were carried out in 50 mM Tris-HCl buffer, pH 7.4. Aliquots of the peptides at a final concentration of 0.1 μM were successively added to a cuvette containing the LPS/BC complex (10 µg/mL P. aeruginosa LPS and 10 µM BC). Fluorescence measurements were performed with a Perkin-Elmer LS 55B spectrofluorometer (Perkin-Elmer, Waltham, MA, USA) using a thermostated (25 °C) cuvette apparatus (excitation: 580 nm; emission: 620 nm).

[4] = LAL assay, LPS neutralization; type: biochemical, Escherichia coli; conditions: 2.4 to 19.25 μM peptide; E. coli 011:B4 LPS 2 EU/mL; 30 min, 37 °C
Description: The ability of lin-SB056-1 and (lin-SB056-1)2-K to neutralize the activity of LPS was analyzed using a standardized LAL assay (Pierce LAL chromogenic endotoxin quantitation kit; Thermo Fisher Scientific). Peptides at different concentrations (2.4 to 19.25 μM) were pre-incubated with E. coli 011:B4 LPS (2 Endotoxin Units (EU)/mL; EU = unit of measurement for endotoxin activity) for 30 min (37 °C, shaking) in order to promote the interaction between the two molecules. LPS alone was used as positive control. Following incubation, peptide-treated and untreated samples were mixed with the LAL reagent (1:1 ratio) and incubated for 10 min at 37 °C. Subsequently, 100 μL of the chromogenic substrate were added and incubated with the samples for 6 min. The reaction was terminated by adding 100 μL of acetic acid (25% v/v), and absorbance was measured at 405 nm ([…]) using a microplate reader (Multiscan FC, Life Technologies Italia, Monza, Italy). The amount of peptide-sequestered LPS was determined as follows: LPS neutralization (%) = [100 − (ODpeptide/ODpositive control × 100)].

P. aeruginosa = conditions: previous studies; cited from earlier work
Excerpt: (§3) The global issue of anti-microbial resistance coupled with the lack of new treatments for bacterial infections has stimulated interest in the use of AMPs for therapeutic purposes. Due to their unique mechanism(s) of action and wide spectrum of biological activities, AMPs are emerging as a promising alternative to conventional anti-microbial agents for the management of antibiotic-resistant and biofilm-associated infections. Although mainly intended for topical use due to potential toxicity and reduced stability under physiological conditions, many different peptides with anti-micro ...

mammalian cells = conditions: cited from earlier work
Excerpt: as §3

[5] = in vitro; cited from earlier work
Excerpt: While the anti-microbial activities of AMPs are becoming increasingly understood, the mechanisms underlying their anti-inflammatory effect still need to be fully elucidated. Nevertheless, the anti-inflammatory mode of action of many peptides has been attributed to their ability to efficiently bind LPS and/or block LPS recognition by effector cells. […] Analogous LPS-ne ... || It is generally thought that the dendrimeric architecture leads to improved biological activity due to a higher local concentration of the active sequence. Possibly, thanks to its conformational plasticity, the dendrimeric organization might maximize target binding (e.g., LPS) through electrostatic interactions, leading to greater biological effects. Nevertheless, we cannot exclude a role of stability on the ability of dendrimeric peptides to establish solid interactions with LPS under specific experimental conditions. For instance, the stronger LPS-binding affinity of (lin-SB056-1 ...

sepsis in animal models = conditions: by sequestering soluble LPS; cited from earlier work
Excerpt: While the anti-microbial activities of AMPs are becoming increasingly understood, the mechanisms underlying their anti-inflammatory effect still need to be fully elucidated. Nevertheless, the anti-inflammatory mode of action of many peptides has been attributed to their ability to efficiently bind LPS and/or block LPS recognition by effector cells. […] Analogous LPS-ne ...

[6] = up to 19.25 μM (highest tested), 37 °C, 5% CO2, relative to cell lysis control, at least three independent experiments

Row | Substance | effect on IL-6 release (A549 cells [1]) | effect on IL-8 release (A549 cells [1]; lin-SB056-1 decrease at 19.25 μM (highest tested)) | cell death (LDH release), with LPS (A549 cells [2]; [6]) | toxicity (A549 cells [2]; up to 19.25 μM, LDH release) | cell death (LDH release), with LPS (THP-1 macrophages; [6]) | toxicity (THP-1 macrophages; up to 19.25 μM, LDH release) | ED50 (Effective Displacement; peptide concentration displacing half of the BC) [3] [nM] | LPS neutralization / LAL activity [4] | anti-microbial / anti-biofilm activity (P. aeruginosa) | cytotoxicity (mammalian cells) | LPS-induced pro-inflammatory responses [5] | protection from sepsis (sepsis in animal models)
1 | KWKIRVRLSA-NH2 [lin-SB056-1, semi-synthetic peptide lin-SB056-1] | only a decrease in IL-8 levels was recorded | decrease in IL-8 levels | less than 5% | no detectable toxicity | less than 5% | no detectable toxicity | ~1750 | differently from lin-SB056-1 | effective against biofilms; also recorded: promising anti-microbial activity | low cytotoxicity |  | 
2 | LL-37: well-known human cathelicidin LL-37 (LLGDFFRKSKEKIGKEFKRIVQRIKDFLRNLVPRTES; Antibacterial peptide LL-37; UniProt P49913 134-170, looked up) |  |  |  |  |  |  |  |  |  |  | suppress LPS-induced pro-inflammatory responses | protect from sepsis
